Data on 3 molecules can be found in PMC4168215, “Perampanel Inhibition of AMPA Receptor Currents in Cultured Hippocampal Neurons” (PLoS ONE, 2014).

One test has as its system AMPA receptors. The note with it: rat forebrain membranes; earlier radioligand binding studies; cited from earlier work.
For test [1], the system named is AMPA receptor. The note with it: cited from earlier work.
Test [2] relates to AMPA receptor. As to the kind of experiment: Whole-cell voltage-clamp recording of AMPA-evoked currents in cultured hippocampal neurons. Type of test: cell-based, rat. The procedure: (§1) Primary hippocampal neuronal cultures were prepared as previously described. In brief, timed pregnant rats Sprague-Dawley rats (Charles River Laboratories International, Wilmington, MA, USA) were anesthetized with isoflurane. E18 embryos were obtained and the hippocampi were dissected and treated in Hank’s balanced salt solution (HBSS; Invitrogen, Carlsbad, CA, USA) with trypsin (0.03%, Sigma-Aldrich, St. Louis, MO) for 20 min at 37°C. After inactivation of trypsin with neuronal medium (Neurobasal medium; Invitrogen, Life Technologies, Grand Island, NY, USA) supplemented with NS21, 0.5 mM glutamine, 10 mM HEPES) plus 5% horse serum (HS; Invitrogen), the tissue was washed twice with HBSS, and triturated with a fire-polished Pasteur pipette. After non-dissociated pieces of tissue settled, cells in the supernatant were collected by centrifugation (1100 rpm at 200×g for 3.5 min), re-suspended in neuronal medium plus 5% horse serum, counted, and plated on coverslips (Warner Instruments, Hamden, CT, USA) coated with 0.1% (w/v) poly-L-lysine (Peptides International, Louisville, KY, USA). The cell density was 3×10^4 cm^−2 in plating medium. After 4 h, the medium was replaced with serum-free neuronal medium. Cells were grown in a humidified environment of 95% air/5% CO2 at 37°C. One third of medium was changed after 5 days in vitro (DIV) and weekly thereafter.
(§2) Whole-cell voltage clamp experiments were performed 7–25 days after plating. […]. The pipette solution contained 145 CsCl, 0.1 mM CaCl2, 2 mM MgCl2, 1 mM EGTA, and 5 mM HEPES. For NMDA-mediated currents, recordings were made in a bath solution containing 135 mM NaCl, 5 mM KCl, 0.2 mM CaCl2, 10 mM HEPES, 1 µM TTX, 10 µM bicuculline, 1 µM strychnine, 10 µM NBQX, 3 µM glycine. The pipette solution contained 145 CsCl, 0.1 mM CaCl2, 1 mM EGTA, and 5 mM HEPES.
(§3) Recordings were made with an Axopatch 200B patch-clamp amplifier (Axon Instruments, Foster City, CA, USA). Whole-cell currents were filtered at 2 kHz and digitized at 10 kHz. All neurons were voltage-clamped at −60 mV. The following drugs dissolved in bath solution were applied using a fast perfusion system (VC^3-8XP, ALA Scientific Instrument, NY, USA): kainate (3, 10, 100 µM), AMPA (10, 30, 100 µM), NMDA (10, 100 µM), and perampanel (0.01–30 µM). All were from Sigma-Aldrich except perampanel, which was from Eisai Inc. Solution reservoirs contained the drugs separately or the combination of an agonist (kainate, AMPA or NMDA) plus perampanel. Each solution reservoir was connected to a pinch valve of the 8-channel VC^3-8XP perfusion system, which fed solution to an 8-to-1 mini-manifold (MP-8, Warner Instruments, Hamden, CT) that has a dead-volume of 3.5 µl when switching between solutions. Only one perfusion line was open at a time. The opening speed was 15–20 ms. The command for switching among perfusion lines was generated by the pClamp software and delivered to the control box of the perfusion system via a TTL connection.

Test [3] relates to AMPA receptor. The experiment in a line: Whole-cell voltage-clamp recording of kainate-evoked (AMPA receptor) currents in cultured hippocampal neurons. Type of test: cell-based, rat. The note with it: for percent inhibition of kainate-evoked current: sample current. The procedure:
as §1, §2, §3

Test [4] has as its system NMDA receptor. The experiment in a line: Whole-cell voltage-clamp recording of NMDA-evoked currents in cultured hippocampal neurons. The format is cell-based, rat. The procedure:
as §1, §2
Recordings were made with an Axopatch 200B patch-clamp amplifier (Axon Instruments, Foster City, CA, USA). Whole-cell currents were filtered at 2 kHz and digitized at 10 kHz. All neurons were voltage-clamped at −60 mV. […]

Test [5] has as its target AMPA receptor. The arrangement: method as in PMID 21635236. The conditions noted are these: cultured rat cortical neurons; read-out: IC50, inhibition of AMPA-induced Ca2+ influx; cited from earlier work.
The target in test [6] is AMPA receptor. The conditions noted are these: CA1 area, rat hippocampal slices; read-out: IC50, inhibition of AMPA receptor component of the field response; cited from earlier work.
Test [7] has as its system NMDA receptor. The conditions noted are these: CA1 area, rat hippocampal slices; cited from earlier work.
Another test deals with kainate receptor. The conditions noted are these: CA1 area, rat hippocampal slices; cited from earlier work.
The subject of test [8] is NMDA receptor. The conditions noted are these: 30 µM; studies to date; cited from earlier work.
Where [9] appears, read: 1 µM perampanel, 10, 30 and 100 µM AMPA.
The mark [10] stands for this setting: 3 µM perampanel and 100 µM AMPA applied simultaneously.
The mark [11] stands for this setting: 30 µM perampanel preapplied 5 s then coapplied, 10 and 100 µM NMDA.

Several values for one entry are separate records, joined by “and”; a condition that tells them apart may be missing. Identical values can stand only once. Like-named read-outs stand apart in the source and are kept apart here.

As for `CCN(CC)Cc1cccc(/C=C/c2nc3ccc(F)cc3c(=O)n2-c2ccccc2Cl)n1` [CP-465,022], in the test on AMPA receptors, the “displacement of [3H]perampanel binding” value was “displaced”.
For the molecule `CC1=NN=C(c2ccc(N)cc2)c2cc3c(cc2C1)OCO3` [GYKI 52466, 1-(4-amino-phenyl)-4-methyl-7,8-methyl-endioxyl-5H-2,3-benzodiaze pine], the “displacement of [3H]perampanel binding” value with AMPA receptors is “displaced”. Also, in the test with AMPA receptor [1] (30 µM), the “inhibition of steady AMPA receptor current” value is listed as around 50% and the “time in which block occurs” value was “several hundred milliseconds”. Besides, in the test on AMPA receptor [1], the association rate is 160000 M⁻¹ s⁻¹ and the dissociation rate is 3.2 s⁻¹.
With `N#Cc1ccccc1-c1cc(-c2ccccn2)cn(-c2ccccc2)c1=O` [Perampanel, 2-(2-oxo-1-phenyl-5-pyridin-2-yl-1,2-dihydropyridin-3-yl)benzonitrile], the “effect on decay time constant of AMPA-evoked currents” value with AMPA receptor [2] (setting [9]) is “did not alter”. Moreover, the “effect on peak to late ratio of AMPA-evoked currents” value with AMPA receptor [2] (setting [9]) was “not statistically different from control”. For the same molecule, the “effect on rise time constant of AMPA-evoked currents” value in the test on AMPA receptor [2] (setting [9]) was “did not alter”. The “reduction of peak AMPA response” value in the test on AMPA receptor [2] (setting [10]) is on record as 17%. For the same molecule, the “time to full block” value in the test with AMPA receptor [2] (setting [10]) was at most 5 s. Further, the “reduction in the peak and late AMPA responses” value in the test with AMPA receptor [2] (3 µM perampanel started 5 s before 100 µM AMPA) is on record as around 60%. The “time constant (τ) of inhibition of AMPA receptor currents” value in the test on AMPA receptor [2] (3 µM perampanel, currents evoked by AMPA and kainate) was around 1 s. Besides, the “time over which block develops without preexposure” value in the test with AMPA receptor [2] (3 µM perampanel, kainate- and AMPA-evoked currents (Fig. 3)) is around 3 s. Moreover, the IC50 with AMPA receptor [2] (10 µM AMPA, holding −60 mV, perampanel preapplied 5 s then coapplied, read-out: AMPA Response IC50, Peak Current) was 400 nM; with AMPA receptor [2] (10 µM AMPA, late current at end of 5 s AMPA perfusion, read-out: AMPA Response IC50, Late Current) it was 400 nM; in the test with AMPA receptor [2] (30 µM AMPA, holding −60 mV, perampanel preapplied 5 s then coapplied, read-out: AMPA Response IC50, Peak Current), 800 nM; with AMPA receptor [2] (30 µM AMPA, late current at end of 5 s AMPA perfusion, read-out: AMPA Response IC50, Late Current) it was 900 nM; in the test with AMPA receptor [2] (100 µM AMPA, holding −60 mV, perampanel preapplied 5 s then coapplied, read-out: AMPA Response IC50, Peak Current) it was 900 nM; with AMPA receptor [2] (100 µM AMPA, late current at end of 5 s AMPA perfusion, read-out: AMPA Response IC50, Late Current), 1200 nM. The IC50 in the test with AMPA receptor [3] (3 µM kainate, holding −60 mV, perampanel preapplied 5 s then coapplied, read-out: Kainate Response IC50) is 580 nM; in the test with AMPA receptor [3] (10 µM kainate, holding −60 mV, perampanel preapplied 5 s then coapplied, read-out: Kainate Response IC50), 510 nM; in the test on AMPA receptor [3] (100 µM kainate, holding −60 mV, perampanel preapplied 5 s then coapplied, read-out: Kainate Response IC50) it was 580 nM; in the test with AMPA receptor [3] (overall value, similar at all kainate concentrations (3–100 µM), read-out: IC50, block of non-desensitizing kainate-evoked currents), 560 nM; at AMPA receptor [5], 93 nM; at AMPA receptor [6], 230 nM. In addition, the Kd with AMPA receptor [2] (100 µM AMPA-evoked currents, read-out: kinetically determined binding affinity (KD = k–1/k1)) was 3900 nM. The “mean off rate determined from the τoff values” in the test with AMPA receptor [2] (100 µM AMPA, 1, 3 and 10 µM perampanel) was 0.68 s⁻¹. In addition, the “unbinding rate constant k–1 (rate of unblock, dissociation rate)” value in the test on AMPA receptor [2] (100 µM AMPA, 1, 3 and 10 µM perampanel, intercept of kapp vs concentration) amounted to 0.58 s⁻¹. The “binding rate constant k1 (rate of block, association rate)” value with AMPA receptor [2] (100 µM AMPA, 1, 3 and 10 µM perampanel, slope of kapp vs concentration) was 1.5×10^5 M^−1 s^−1 and 1.51±0.10×10^5 M^−1 s^−1. In addition, the “percent inhibition of kainate-evoked current” value with AMPA receptor [3] (0.1 µM perampanel, 100 µM kainate) turned out to be 20%; in the test on AMPA receptor [3] (0.3 µM perampanel, 100 µM kainate), 41%; in the test with AMPA receptor [3] (1 µM perampanel, 100 µM kainate), 55%; in the test on AMPA receptor [3] (3 µM perampanel, 100 µM kainate) it was 80%. In the test on AMPA receptor [3] (3 µM perampanel started 5 s after onset of 100 µM kainate), the “time constant (τ) of development of block” value came to 1.2 ± 0.1 s. Besides, the “reduction of the kainate-induced current” value in the test on AMPA receptor [3] (3 µM perampanel started 5 s before kainate (100 µM), one neuron) is around 73%. The “time constant (τ) of recovery from block” value in the test with AMPA receptor [3] (3 µM perampanel, 100 µM kainate, after termination of perampanel) is 3.3 ± 1.5 s. Moreover, the “effect on mean amplitude of late NMDA-evoked current” value in the test with NMDA receptor [4] (setting [11]) is “failed to affect”. Besides, in the test with NMDA receptor [4] (setting [11]), the “effect on mean amplitude of peak NMDA-evoked current” value is on record as “failed to affect”. Moreover, the “effect on NMDA receptor currents” value in the test with NMDA receptor [4] (summary statement) is recorded as “did not affect”. In addition, in the test with NMDA receptor [7], the “effect on NMDA receptor component of the field response” value is “without affecting”. Besides, the “effect on kainate receptor component of the field response” value in the test with kainate receptor is given as “without affecting”. Besides, in the test with NMDA receptor [8], the “inhibition of NMDA responses” value is recorded as “only minimally inhibits”.
